Reference: ChEMBL document CHEMBL6087423, “Grafting a chromophore on AMD070 analogues for CXCR4 bioimaging: Chemical synthesis and in vitro assessment of the inhibition properties of the CXCR4 receptor” (Bioorg Med Chem Lett, 2025)
Each block holds one compound with its values, some of them ahead of it.

Tests used:
[1] = biological target: T1, C-X-C chemokine receptor type 4 (Homo sapiens, UniProt P61073); test: Binding affinity to CXCR4 (unknown origin)
[2] = tested on: Human immunodeficiency virus 1; test: Anti-HIV activity against HIV-1 IIIB infected in MT-4 cells; type: functional, organism-based; conditions: Human immunodeficiency virus 1, IIIB, MT4
[3] = tested on: Human immunodeficiency virus 2; test: Anti-HIV activity against HIV-2 ROD infected in MT-4 cells; type: functional, organism-based; conditions: Human immunodeficiency virus 2, ROD, MT4
[4] = biological target: T1, C-X-C chemokine receptor type 4; test: Inhibition of 12G5-PE binding to CXCR4 in human U266B1 cells assessed as cell viability incubated for 1 hr by DAPI staining based flow cytometric analysis

T1 sequence (P61073 whole entry): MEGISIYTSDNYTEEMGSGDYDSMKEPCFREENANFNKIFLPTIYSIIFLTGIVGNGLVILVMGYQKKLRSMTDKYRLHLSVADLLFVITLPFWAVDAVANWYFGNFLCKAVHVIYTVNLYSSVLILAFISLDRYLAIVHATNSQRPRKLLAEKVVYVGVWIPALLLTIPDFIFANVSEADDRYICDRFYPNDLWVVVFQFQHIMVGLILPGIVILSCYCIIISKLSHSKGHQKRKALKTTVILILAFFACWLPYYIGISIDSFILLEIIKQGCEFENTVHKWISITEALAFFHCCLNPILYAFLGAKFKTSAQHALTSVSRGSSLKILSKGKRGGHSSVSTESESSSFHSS

IC50 [1]: 10 nM
Structure (SMILES): NCc1cc(C(N)=O)ccc1CN(Cc1nc2ccccc2[nH]1)C1CCCc2cccnc21 (stereo not given)

IC50 [2]: 100 nM | IC50 [3]: 100 nM
Structure (SMILES): C1CNCCNCCCNC(C2CNCCCNCCNCCCN2)CNC1 (stereo not given)

Structure (SMILES): O=C1OC2(c3ccc(O)cc3Oc3cc(O)ccc32)c2ccc(NC(=S)NCCCCN(Cc3nc4ccccc4[nH]3)C3CCCc4cccnc43)cc21 (stereo not given)
IC50 [4]: 5620 nM

IC50 [1]: 10 nM
Structure (SMILES): COC(=O)C(=O)c1ccc(CN(Cc2nc3ccccc3[nH]2)C2CCCc3cccnc32)c(CN)c1 (stereo not given)
